In this assay the target is T1, PI3Kα (Homo sapiens, UniProt P42336).
T1 construct: gene PIK3CA
The assay can be described thus: biochemical.

The structures appear in SMILES notation.

T1 sequence (P42336 whole entry): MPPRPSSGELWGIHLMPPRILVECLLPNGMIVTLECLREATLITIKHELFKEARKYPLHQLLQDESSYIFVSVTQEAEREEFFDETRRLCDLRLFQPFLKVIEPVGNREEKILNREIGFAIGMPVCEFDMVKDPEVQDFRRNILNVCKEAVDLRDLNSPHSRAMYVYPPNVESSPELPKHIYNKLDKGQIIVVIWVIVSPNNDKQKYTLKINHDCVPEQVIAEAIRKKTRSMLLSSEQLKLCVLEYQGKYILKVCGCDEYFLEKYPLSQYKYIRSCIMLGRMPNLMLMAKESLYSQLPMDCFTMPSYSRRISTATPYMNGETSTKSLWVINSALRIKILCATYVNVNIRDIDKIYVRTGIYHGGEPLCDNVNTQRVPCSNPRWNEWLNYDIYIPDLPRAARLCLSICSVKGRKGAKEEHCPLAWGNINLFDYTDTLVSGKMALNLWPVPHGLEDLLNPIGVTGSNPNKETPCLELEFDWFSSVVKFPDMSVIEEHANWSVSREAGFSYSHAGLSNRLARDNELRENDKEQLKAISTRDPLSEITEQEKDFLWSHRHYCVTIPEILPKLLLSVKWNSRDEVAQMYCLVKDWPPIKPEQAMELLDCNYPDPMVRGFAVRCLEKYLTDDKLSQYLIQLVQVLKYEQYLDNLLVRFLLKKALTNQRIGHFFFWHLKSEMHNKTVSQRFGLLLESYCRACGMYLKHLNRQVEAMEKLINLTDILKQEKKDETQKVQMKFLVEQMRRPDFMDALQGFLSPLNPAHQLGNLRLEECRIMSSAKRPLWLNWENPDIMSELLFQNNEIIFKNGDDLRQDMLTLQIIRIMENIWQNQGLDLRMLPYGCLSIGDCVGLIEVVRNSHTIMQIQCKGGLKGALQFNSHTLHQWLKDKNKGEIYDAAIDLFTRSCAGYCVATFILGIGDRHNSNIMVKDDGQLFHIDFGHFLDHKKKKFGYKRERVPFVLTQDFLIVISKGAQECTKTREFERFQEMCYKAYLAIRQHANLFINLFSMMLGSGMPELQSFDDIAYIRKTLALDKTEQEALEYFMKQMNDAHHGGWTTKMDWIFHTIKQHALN
T1 sequence (P27986 2-724, further chain): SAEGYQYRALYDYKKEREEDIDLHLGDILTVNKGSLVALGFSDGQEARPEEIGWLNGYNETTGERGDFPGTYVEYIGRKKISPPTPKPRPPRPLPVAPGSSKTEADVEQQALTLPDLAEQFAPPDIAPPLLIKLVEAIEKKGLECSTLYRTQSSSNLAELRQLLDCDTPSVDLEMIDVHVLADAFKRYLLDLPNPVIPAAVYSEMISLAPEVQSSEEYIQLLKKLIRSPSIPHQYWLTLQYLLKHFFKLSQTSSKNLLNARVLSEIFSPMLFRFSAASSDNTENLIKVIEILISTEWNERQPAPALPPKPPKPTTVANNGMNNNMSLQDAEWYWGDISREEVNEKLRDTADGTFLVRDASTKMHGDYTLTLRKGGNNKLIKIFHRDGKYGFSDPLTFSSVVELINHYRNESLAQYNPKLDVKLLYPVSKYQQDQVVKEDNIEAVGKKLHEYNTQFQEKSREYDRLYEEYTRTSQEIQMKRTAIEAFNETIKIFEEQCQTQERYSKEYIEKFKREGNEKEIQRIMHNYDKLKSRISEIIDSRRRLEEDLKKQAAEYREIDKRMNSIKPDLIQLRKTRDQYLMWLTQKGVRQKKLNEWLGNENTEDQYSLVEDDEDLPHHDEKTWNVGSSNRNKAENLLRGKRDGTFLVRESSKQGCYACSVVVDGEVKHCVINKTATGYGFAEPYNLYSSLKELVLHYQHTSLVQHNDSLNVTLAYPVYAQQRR

`Cc1cccc2c1ccc1c3occ(C)c3c3[nH]c(-c4ccc[n+](CC(=O)c5ccc(Br)cc5)c4)nc3c21` [a4, 1-(2-(4-bromophenyl)-2-oxoethyl)-3-(1,6-dimethyl-12H-furo[2',3':1,2]phenanthro[3,4-d]imidazol-11-yl) pyridin-1-ium bromide] registered a half-maximal inhibitory concentration (IC50) of 9.24 ± 0.2 µM.

The values above are taken from publication PMC12332164, “Synthesis and biological activity study of tanshinone I-pyridinium salt derivatives” (Natural Products and Bioprospecting, 2025).
